According to paper PMC7604311, “Caprine Bactenecins as Promising Tools for Developing New Antimicrobial and Antitumor Drugs” (Frontiers in Cellular and Infection Microbiology, 2020):
Bridge positions count the residues as written; N and C are the ends. Ends that are not written are not given here.

Tests used:
E. coli ML-35p = test: Broth microdilution assay (MIC); type: cell-based, Escherichia coli; settings: 50% MH broth/50% 10 mM Na-P buffer pH 7.4 with 0.1% BSA, 1×10^6 CFU/ml, 20 h, median of 3–6 independent experiments in triplicate
Experimental: The minimal inhibitory concentrations (MIC) of peptides were determined using microdilution assay in Müller–Hinton (MH) broth in general accordance with the guidelines of the European Committee for Antimicrobial Susceptibility Testing. Test plates were additionally pretreated with 0.1% bovine serum albumin (BSA) in distilled H2O (incubated for 1 h at 37°C) to reduce possible non-specific binding of peptides to the plastic surface of the wells, as proposed for AMP activity measuring ([Tossi et al., 1997]; [Wiegand et al., 2008]). Two-fold serial dilutions of peptides starting with 2 × stock concentration were prepared in sterile 10 mM sodium phosphate (Na-P) buffer, pH 7.4, with 0.1% BSA. Thus, final solutions contained 50% of Na-P diluted peptide and 50% of MH broth with bacteria. Bacteria for testing were grown overnight, then transferred into a fresh portion of 2.1% MH medium and additionally incubated for 2–3 h to obtain bacterial culture in its mid-logarithmic growth phase, which was diluted down to the final concentration of 1 × 10^6 CFU/ml. Concentration of bacteria in growth medium was calculated based on its absorbance at 620 nm.
After 20 h of incubation of AMPs with bacteria MICs were determined as lowest concentrations of AMPs completely preventing the visible growth of bacteria. Tests were performed in 60-well Terasaki microplates (10 µl end volume, V-shaped bottom; Sarstedt, Germany); dilutions in each test were made in triplicate. Final MIC values were calculated as medians based on the results of 3–5 independent experiments.

[1] = Standard acute toxicity test; type: in vivo; settings: at the utilized doses (1 or 100 μg per animal); data not shown
K562 cells [2] = test: Trypan blue dye exclusion assay; type: cell-based, human; settings: K562, 1×10^6 cells/ml, serum-free RPMI-1640, first 3 h of incubation
Experimental: Living cells exclude the dye, so that their cytoplasm remains clear. When damaged cells take up the dye, it binds to intracellular proteins and renders them a blue color. Cells suspended to a concentration of 1 × 10^6 per ml in RPMI-1640 medium (serum-free) were incubated with various concentrations of the peptides of interest for various periods of time at 37°C and 5% CO2. Then they were stained with 0.2% trypan blue dye solution in PBS for 3 min at room temperature, and dead and living cells were counted using a hemocytometer. Percentage of viable cells was calculated as follows:
(3) Viable cells (%) =total number of viable cells/total number of cells×100%,
Experiments were repeated three times before plotting time-killing curves. For each time point, data are presented as mean with standard deviation (SD).

K562 cells [3] = test: Annexin V-Cy3 apoptosis detection assay; type: cell-based, human; settings: K562, 2 h incubation with peptide, Annexin-Cy3.18/6-CFDA staining
Source text: Annexin V-Cy3 Apoptosis Detection kit (Sigma, USA) was used to distinguish between cells dying via necrosis and cells entering apoptosis. This kit includes a combination of red and green fluorescent dyes; 6-Carboxyfluorescein diacetate (6-CFDA) is hydrolyzed by esterases inside viable (still functional) cells, producing the green fluorescent compound 6-carboxyfluorescein. Annexin-Cy3.18, giving red fluorescence, binds to phosphatidylserine which only becomes exposed in the outer leaflet of the plasma membrane for cells entering the apoptotic process, or if the plasma membrane is damaged during necrosis. Thus, living cells are only stained green, necrotic ones are only stained red, while cells in the early stages of apoptosis are stained by both dyes.
To assess the effects of the peptides, cells were incubated in their presence for 2 h under the same conditions as described for trypan blue assay. […] After 10 min incubation at room temperature cells were washed from excess dyes with 1 × binding buffer and analyzed under the luminescent microscope (Leica DM2500, Leica Microsystems, Germany). […] The resulting percentage of viable, apoptotic, and necrotic cells are shown as mean with SD, calculated based on three independent experiments.

Row | Substance | MIC (E. coli ML-35p) [µM] | Toxic action in acute toxicity test [1] | Dynamics of cytocidal action (K562 cells [2]) | Apoptosis versus necrosis (K562 cells [3])
1 | RFRLPFRRIHPPPFVRIHPPPFYRRFL [ChBac3.4-1-COOH] | 2 to 4 | no visible signs of toxic action |  | 
2 | protegrin 1 (RGGRLCYCRRRFCVCVGR-NH2; disulfide 8-13, 6-15; ends not checked; UniProt P32194 131-148, looked up) [PG-1] |  |  | swift and pronounced effect, observable in the first 30 min of exposure | prominent, dose-dependent prevalence of necrosis over apoptosis
